Measurements as given in a melting point compilation (Tetko et al.; mined from patent text by program, amines drawn as free bases though some values may be those of a salt).

Row | SMILES | melting point [°C]
1 | O=C(O)c1ccc(CN(C2CCCCC2O)S(=O)(=O)c2ccc(Cl)cc2)cc1 (centres undefined) | 218 to 219
2 | Fc1ccc(C2(Cl)CN(C(c3ccccc3)c3ccccc3)C2)cc1 | 108 to 109
3 | CN1CCN(C)CCN2CCOCCOCCN(CC1)CCN(C)CCN(C)CC2 | 32 to 33
4 | O=Cc1nc(-c2ccccc2)c(-c2ccccc2)n1Cc1ccccc1 | 146 to 147
5 | CCOC(=O)c1cn(-c2cnsn2)c2c(F)c(F)c(F)cc2c1=O | 167 to 169
6 | Cc1ccc(NC(=O)NN2CCN(CCc3c[nH]c4ccccc34)CC2)cc1 | 201 to 203
7 | NS(=O)(=O)c1cc2nc[nH]c2cc1Cl | 244
8 | CCCCCCOc1ccc(C=[N+]([O-])CCCCCC[N+]([O-])=Cc2ccc(OCCCCCC)cc2)cc1 | 80
9 | CCOC(=O)Cc1ccc(-c2nc(COc3ccc(COc4nn(-c5ccccc5)cc4/C=C/c4nc(N5CCCCC5)sc4C)cc3OC)c(C)o2)cc1 | 131 to 132
10 | Cc1c(C)c2c(c(C)c1NC(=O)NC(C)(C)C)C(c1ccc(C(C)C)cc1)CO2 (centres undefined) | 201 to 202
11 | Cc1ccc(C2COc3c(C)c(C)c(NC(=O)CC(C)(C)C)c(C)c32)nc1 (centres undefined) | 170 to 171
12 | COC1CC(OC)(OC)C(=O)N1 (centres undefined) | 86
13 | N#Cc1cnn(-c2nc(Cl)c(C(F)(F)F)cc2Cl)c1N | 168 to 171
14 | COC(=O)c1ccc(S(=O)(=O)N2CC[C@@H](Sc3cc(C(C)(C)C)c(O)c(C(C)(C)C)c3)C2)n1C | 83 to 85
15 | CC(C)(CCl)C(O)C(=Cc1ccc(Cl)cc1)n1cncn1 (centres undefined) | 170
16 | O=C(NCc1c[nH]c(=S)n1[C@H]1CCc2c(F)cc(F)cc2C1)c1ccccn1 | 216 to 217
17 | Cc1nc[nH]c1CSCCN=C(NC#N)NCCO | 146 to 147
18 | CN1C(=O)CC[C@]2(C)c3ccc(-c4c(F)c(F)c(F)c(F)c4F)cc3CC[C@@H]12 | 92 to 100
19 | ON=C1C2CCN(CC2)C1CN1CCCC1 (centres undefined) | 194 to 195
20 | O=C1NC(O)c2cc(Br)ccc21 (centres undefined) | 258 to 261
21 | N#CC1CC(c2ccccc2Cl)=NC1c1ccc(-c2ccc(OC(F)(F)F)cc2)cc1 (centres undefined) | 132
22 | Cc1c(C=O)c2cnnc(OCc3ccc(F)cc3)c2n1C[C@H]1C[C@@H]1C | 138 to 140
23 | CN1CCC(c2cc3c(F)cccc3c(=O)[nH]2)CC1 | 220 to 222
24 | N#Cc1cc2cc(O)c(O)cc2s1 | 229 to 230
25 | N#Cc1cccc(-c2cncc(OC3SCC(O)C(O)C3O)c2)c1 (centres undefined) | 172

Row | SMILES | melting point [°C]
26 | O=C1CCC(=O)N1CCS | 45
27 | CCOC(=O)C1=C(C=O)NC(C(F)(F)F)=C(C(=O)OCC)C1c1cccc2nonc12 (centres undefined) | 94 to 95
28 | O=S1(=O)NCc2cccc(Cl)c21 | 159 to 161
29 | CC(C)(C)OC(=O)Nc1c(F)ccc2c1OC(C)(C)O2 | 106 to 107
30 | [N-]=[N+]=Cc1ccc([N+](=O)[O-])cc1 | 80 to 82
31 | Cc1cc(C)cc(C(=O)N(N(C(=O)c2ccc3c(c2C)OCCO3)C(=O)N(C)C)C(C)(C)C)c1 | 60 to 64
32 | Nc1nc2ccc(OC(F)(F)C(F)(F)F)cc2s1 | 156
33 | O=C1CCCCc2sccc2N1CCCCN1CCN(c2ncccn2)CC1 | 108 to 112
34 | Cc1nc(N2CCN(CC3CC3)C2=O)sc1-c1cc[nH]n1 | 169 to 171
35 | CC(=O)N1CCN(C2=CC(C)(C)Oc3ccc(C#N)cc32)C1=NC#N | 200 to 201
36 | Cc1ccc(Cl)cc1N1C(=O)CN(C)C1=S | 132 to 134
37 | CCOC(=O)CS(=O)(=O)CCCC=C1SC=CS1 | 79.5 to 81
38 | O=C(O)c1cc(I)c(F)c(F)c1F | 167 to 171
39 | CC(C)(C)OC(=O)N1CCCc2onc(O)c2C1 | 170 to 171
40 | O=C(N[C@H]1CC[C@H](CCN2CCN(c3nccc4c3OCC4)CC2)CC1)C1(O)CC1 | 248
41 | CN(C)c1cncc(C#N)c1 | 104
42 | CC(=O)OC1CC2=CCC3C(CCC4(C)C(C(C)CCCC(C)C)CCC34)C2(C)CC1F (centres undefined) | 116 to 119
43 | NC1=NN(c2ccccc2)C(c2ccccc2)C1 (centres undefined) | 195 to 197
44 | CN1C(=O)C[C@]2(c3ccccc3)CCCC[C@H]2C1=O (relative stereo) | 151 to 153
45 | CS(=O)(=O)c1ccc(C(=O)C2=C(O)C3CCC(C3)C2=O)c([N+](=O)[O-])c1 (centres undefined) | 170
46 | Clc1ccc2c(c1)C(c1ccccc1)=NCc1nnc(CCOCc3ccccc3)n1-2 | 115 to 117
47 | CC(C)(C)[N+]([O-])=CCc1ccccc1 | 143
48 | CCCCCCCCCCCCCCCCCCOc1cc(C(=O)OC)cc(N(CC(=O)O)CC(=O)O)c1 | 119 to 123
49 | Cc1c[nH]c(-c2ccc(F)cc2)c1-c1ccc(F)cc1 | 126 to 127

More lines, now with the values ahead:

Row | melting point [°C] | SMILES
50 | 178 to 179 | COCCOc1cc(OC)c(C(CC(=O)Nc2cc(C(N)=O)ccc2C(C)(C)C)CC(C)C)cc1Cl (centres undefined)
51 | 121 | C[C@H]1C[C@@H](Nc2ccccc2)c2ccccc2N1C(=O)c1ccncc1 (relative stereo)
52 | 219 to 245 | N#Cc1cc(NC(=O)c2cc3ccccc3s2)ccc1N1CCCCC1
53 | 255 to 260 | COc1ccc2oc(=O)c(S(=O)(=O)Nc3ccc(F)c(N)c3)cc2c1
54 | 94 to 95 | COc1cc(CO)ccc1OCc1csc(N2CCOCC2)n1
55 | 95 to 96.5 | CC(C)(C)OC(=O)NCc1cccc(CC(=O)O)c1
56 | 146 to 147 | Cc1nc(N2CCN(CCC3CC3)C2=O)sc1C(=O)NCc1cccnc1
57 | 170 to 172 | Cc1ccc(OCC(=O)O)c(I)n1
58 | 45 to 47 | CC(=O)OC1=C(CCCCCCCCC[Si](C)(C)C)C(=O)c2ccccc2C1=O
59 | 68 to 69 | CCOC(=O)c1csc2cc(OC)ccc12
60 | 173 to 174 | NNc1ccc(-c2cccc(Cl)c2)nn1
61 | 51 | CCCC#Cc1cnc(-c2ccc(F)cc2)nc1
62 | 153 to 155 | COc1ccccc1-c1c(C2CCN(C)CC2)[nH]c(=O)c2ccccc12
63 | 114 to 115 | CCC1Oc2ccc(C(C)C(=O)O)cc2C(=O)C1C (centres undefined)
64 | 170 to 174 | COc1ccccc1-n1cc(-c2ccccc2)c(OCC(=O)O)n1
65 | 190 to 192 | O=C(O)c1ccccc1N1C(=O)c2cccc([N+](=O)[O-])c2C1=O
66 | 166 | CCc1nc(C)c(Cc2c(O)ccc3ccccc23)[nH]1
67 | 131 to 133 | O=C(O)COc1cccc2c1Cc1sc(S(=O)(=O)CCC(c3ccccc3)c3ccccc3)nc1-2
68 | 95 to 96 | Cc1ccc(C)c(C2CC(=O)c3c(C)ccnc3C2)c1 (centres undefined)
69 | 116 to 118 | CCN(CC)c1ccc2c(c1)C[C@@H]1c3ccccc3N[C@H]21 (relative stereo)
70 | 122 to 124 | Cc1c(-c2ccccc2)nn2c1-c1ccccc1CC2
71 | 110 | CCCc1cc2c(NCCc3ccccc3)ncnc2s1
72 | 217 to 220 | Cc1cnc(NC(=O)C2c3ccccc3Oc3ccccc32)o1
73 | 171 to 172 | CC(C)c1cc(S(=O)(=O)c2c(Br)cc(CC(=O)O)cc2Br)ccc1O
74 | 108 | COc1ccc2cccc(CCNC(C)=O)c2c1
75 | 98 to 102 | CCCCCOC(=O)Nc1ccc(CN2C(=O)CCc3c(CC4SC(=O)NC4=O)ccc(OC)c32)cc1 (centres undefined)
76 | 112 to 115 | Cc1ccc2c(NCc3ccc(NC(=O)c4ccc(F)cc4)cc3)nc(NCCc3ccccn3)nc2c1
77 | 123 to 129 | CCCN(CCCc1coc2c(OC)cccc12)C1COc2c(F)ccc(C(N)=O)c2C1 (centres undefined)

Row | melting point [°C] | SMILES
78 | 124 to 127 | CCOC(=O)[C@H](CSC[C@H](Cc1ccccc1)NC(=O)OCc1ccccc1)N[C@@H](C)C(=O)O
79 | 101 to 103 | CCNC(=O)c1c(C)cccc1N(C)C(C)(C)C
80 | 81 to 82 | COc1cccc(NC(C)=O)c1
81 | 100 to 103 | CCOC(=O)CSc1nc(Cl)cc(Nc2c(C)cc(C)cc2C)n1
82 | 55 to 56 | Cc1ccc(C)n1-c1cc(F)cc(F)c1
83 | 39 to 41 | C=CCn1nc(CCCC)c(Cc2ccc(-c3ccccc3-c3nnn[nH]3)cc2)c1COC
84 | 218 to 220 | Cc1ccccc1CN1CCC(n2c(C)c(-c3ccc(Cl)cc3)[nH]c2=O)CC1
85 | 101 to 106 | CN(C)S(=O)(=O)c1cccc(S(N)(=O)=O)c1
86 | 242 to 244 | CN1C(=O)c2ccccc2NC(=O)C1c1ccccc1 (centres undefined)
87 | 206 to 208 | COc1ccc2[nH]c(C(=O)O)c(-c3ccccc3F)c2c1
88 | 223 | O=C(Nc1ccc[nH]c1=O)c1ccccc1F
89 | 75 to 76 | COc1cc(C)nc(Nc2ccccc2)n1
90 | 114 to 117 | CC(=O)NC1C(Oc2ncn(Cc3ccc([N+](=O)[O-])cc3)c2C(N)=O)OC(COC(C)=O)C(OC(C)=O)C1OC(C)=O (centres undefined)
91 | 192 to 194 | OCc1ccc(OCc2ccccc2)c2ncccc12
92 | 126 to 127 | Cc1cc(C)n(-c2nc(Nc3ccccn3)c3ccccc3n2)n1
93 | 85 to 88 | COC1(c2cc(F)cc(S(=O)(=O)c3ccc4c(ccc(=O)n4C)c3)c2)CCOC(C)C1 (centres undefined)
94 | 101 to 102 | CN(O)CCc1ccc2c(c1)C(=O)c1ccccc1CO2
95 | 94 to 95 | C(#Cc1cccc(-c2cnccn2)c1)c1ccncc1
96 | 117 to 119 | CC(C)C(NS(=O)(=O)c1ccc(Cl)cc1)c1ccc(CCCC(=O)O)cc1 (single isomer, unassigned; (+))
97 | 246 | O=c1[nH]c2cccc(O)c2n1CCN1CCN(c2cccc(C(F)(F)F)c2)CC1
98 | 197 to 199 | O=C1CCOc2ccc(/C=C/c3nc4cc(F)ccc4s3)cc21
99 | 251 to 252 | COc1ccc2c(c1)c(-c1ccccc1)nc1nnc(C)n12
100 | 105 to 107 | O=C1OC(COc2ccc(Cl)cc2Cl)OC1c1ccccc1 (centres undefined)
101 | 216 | N#Cc1cccc(C2=NN(C(=O)Nc3ccc(OC(F)(F)F)cc3)CCC2n2cc(Cl)cn2)c1 (centres undefined)
102 | 85.5 to 86.5 | CC(=O)CCCCC(=O)Nc1ccccc1
103 | 154 to 156 | CCOC1=NS(=O)(=O)c2ccc(N)cc21
104 | 288 to 289 | COc1ccc2cc(-c3ccc(C(=O)O)cc3)ccc2c1
